Reference: publication PMC11397358, “Cytotoxic Activity of Novel GnRH Analogs Conjugated with Mitoxantrone in Ovarian Cancer Cells” (Molecules, 2024)
Where two headings read alike, the source gives them in different places.

How the values were obtained:
human GnRH-R = biological target: T1, human GnRH-R (Homo sapiens, UniProt P30968); assay: Calcium-based (fura-2) kinetic assay of GnRH-R agonism; format: cell-based; conditions: HEK293 cells transfected with human GnRH-R; fura-2
T1 construct: host or cells: HEK293 (ATCC CRL-1573)
T1 sequence (P30968 1-328): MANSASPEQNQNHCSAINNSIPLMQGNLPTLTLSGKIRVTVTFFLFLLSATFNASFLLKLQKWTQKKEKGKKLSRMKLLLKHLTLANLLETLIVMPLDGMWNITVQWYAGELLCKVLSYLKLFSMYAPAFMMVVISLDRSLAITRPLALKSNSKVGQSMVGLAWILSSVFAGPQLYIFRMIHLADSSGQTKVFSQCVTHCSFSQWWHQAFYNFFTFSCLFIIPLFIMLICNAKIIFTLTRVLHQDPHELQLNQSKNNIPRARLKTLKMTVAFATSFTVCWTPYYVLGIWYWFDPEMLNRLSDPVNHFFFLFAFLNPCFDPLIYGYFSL
Procedure: For this purpose, fura-2-based kinetic assays to monitor the [Ca^2+] were performed in real-time using suspensions of HEK293 cells transiently transfected with the human GnRH-R (Figure 2A–I).
HEK293 cells transfected with the human GnRH-R served as a platform with which to test for agonist actions of individual test compounds. These cells were loaded with the ratiometric Ca^2+ indicator fura-2 so that the change in intracellular [Ca^2+] in response to agonist stimulation could be monitored in real time in a 96-well format. For these assays, the individual test compounds were administered at the 100 s time point.
Two days post-transfection, the HEK293 cells were harvested via trypsinization to obtain single-cell suspensions that were plated at 80% density on rat tail collagen-coated 96-well Costar 3904 plates for loading with the ratiometric Ca^2+ indicator fura-2. Measurements of the intracellular [Ca^2+] were performed using a Flexstation 3 microplate reader (Molecular Devices, Sunnyvale, CA, USA). Briefly, test solutions containing GnRH-R agonists were administered to individual wells of a 96-well plate using the automated pipetting feature of the Flexstation under computer control. […] Emitted light was detected at 505/15 nm, and the ratio of emission light intensity due to excitation at 335/9 and 375/9 nm was calculated. […]

SKOV-3 cells = assay: Cell proliferation (MTT) assay; format: cell-based, human; conditions: for IC50: Homo sapiens, 0.1 nM–10 µM, medium with 2% BCS, mean ± spread, Con-3 and mitoxantrone n = 3 experiments, Con-7 n = five
Procedure: The antiproliferative effects of GnRH-mitoxantrone conjugates, Con-3, and Con-7, were evaluated using the SKOV-3 cells. The Con-3 and Con-7 conjugates decreased the proliferation rate of SKOV-3 cells in a dose-dependent manner on days 2, 3, and 4 (Figure 3A–C).
Figure 3 Antiproliferative activity of the GnRH analogs. Decrease in the proliferation rate of the SKOV3 cells after their treatment with increasing concentrations of Con-3, Con-7, Con-P1 or Con-P2 for 2 days (A), 3 days (B) and 4 days (C) at 37 °C. At the end of the incubation, the cells were further incubated with 0.5 mg/mL MTT for 4 h at room temperature and the formed purple formazan crystals were quantified by measuring absorbance at 594 nm. The means ± S.E (triplicate determination) are shown from a representative experiment performed 3 times with similar results. The proliferation rates of cells treated with 1 μΜ of GnRH analogs were used to plot the graph D which depicts the decrease in cell growth over the incubation time (D). Statistical analysis was performed using one-way ANOVA.
At the end of the incubation, the cells were further incubated with 0.5 mg/mL MTT for 4 h at room temperature and the formed purple formazan crystals were quantified by measuring absorbance at 594 nm. The means ± S.E (triplicate determination) are shown from a representative experiment performed 3 times with similar results. […] Statistical analysis was performed using one-way ANOVA.
SKOV-3 cells (kindly provided by Prof. Dimitrios Mavroudis, University of Crete) were seeded into 96-well plates at a density of 6000 cells/well, in triplicates, and incubated overnight in Dulbecco’s modified Eagle’s medium/F12 (DMEM/F12) (1:1), containing 3.15 g/L glucose and 10% bovine calf serum (BCS, HyClone), at 37 °C and 5% CO2. At the end of the incubation, the culture medium was replaced with a fresh one containing 3.15 g/L glucose and 2% BCS, with or without increasing concentrations of GnRH analogs or mitoxantrone (0.1 nM–10 µM), and the cells were further incubated at 37 °C and 5% CO2 for 2, 3 and 4 days. Subsequently, (3-(4,5-dimethylthiazol-2-yl)-2,5- diphenyl tetrazolium bromide) (MTT) was added at a final concentration of 0.5 mg/mL, and the mixtures were incubated for 4 h at room temperature in the dark, allowing the viable cells to reduce the MTT to formazan crystals. The supernatants were removed, and the purple formazan crystals were dissolved in isopropanol containing 4% HCl (100 μL/well) by mixing thoroughly for 30 min in the dark, before the quantification of the absorbance at 594 nm using a Dynatech MicroElisa reader (Chantilly, VA, USA). The percentage of the proliferation rate (% proliferation rate) treated with a GnRH analog was determined based on the following equation: % proliferation rate = (absorbance of cells treated with a GnRH analog/absorbance of untreated cells) × 100. The % viability of the untreated cells (control) was defined as 100%. The % viabilities were analyzed by nonlinear regression analysis, using Prism 8.0 (GraphPad Software, Prism 8.0, San Diego, CA, USA).

| Compound | GnRH-R agonist action (Ca2+ elevation), in words (human GnRH-R) | IC50 (SKOV-3 cells; SK-OV-3, 48 h, 2 days at 37 °C, read-out: IC50, proliferation of SKOV-3 cells, day 2) | IC50 (SKOV-3 cells; SK-OV-3, 72 h, 3 days at 37 °C, read-out: IC50, proliferation of SKOV-3 cells, day 3) | IC50 (SKOV-3 cells; SK-OV-3, 96 h, 4 days at 37 °C, read-out: IC50, proliferation of SKOV-3 cells, day 4) | percentage of the proliferation rate (SKOV-3 cells; 1 μΜ, two days of treatment, untreated cells = 100%) |
| --- | --- | --- | --- | --- | --- |
| O=C1c2c(O)ccc(O)c2C(=O)c2c(NCCNCCO)ccc(NCCNCCO)c21 [mitoxantrone] | without effect | 480 ± 210 nM | 420 ± 90 nM | 280 ± 60 nM | – |
| CCNC(=O)[C@@H]1CCCN1C(=O)[C@H](CCCNC(=N)N)NC(=O)[C@H](CC(C)C)NC(=O)[C@@H](CSSCCC(=O)OCCNCCNc1ccc(NCCNCCO)c2c1C(=O)c1c(O)ccc(O)c1C2=O)NC(=O)[C@H](Cc1ccc(O)cc1)NC(=O)[C@H](CO)NC(=O)[C@H](Cc1c[nH]c2ccccc12)NC(=O)[C@H](Cc1c[nH]cn1)NC(=O)[C@@H]1CCC(=O)N1 [Con-3] | – | – | – | – | 64.4% |
